According to patent publication US10080756B2, “Combination methods for treating cancers” (Gilead Sciences, Inc., priority 2014, dated 2018):

Columns and labels:
[1] = test system: SU-DHL-2; assay: Cell Titer Glo viability assay, SU-DHL-2; format: cell-based; details: Homo sapiens; SU-DHL-2, DLBCL; single agent; 72 hours; read-out: Inhibition of Viability, EC50
Protocol: (§1) All procedures were performed at Gilead Sciences, Inc. in Branford, The compound of formula (I), cyclophosphamide, doxorubicin and vincristine sulfate were dissolved in DMSO to prepare stock solutions that were serially diluted three-fold in DMSO in a 96 well plate format at 1000× so the final starting assay concentrations tested would be 10 μM, 200 μM, 10 μM, and 1 μM respectively, for each compound. Compound plates were diluted 1:100 in RPMI without serum or additives creating a 10× stock. Cells were seeded into a 96-well plate at 10,000-20,000 cells per well in 100 μl of growth media appropriate to the cell line supplemented with 100 U/L penicillin-streptomycin. OCI-Ly3, OCI-Ly4 and OCI-Ly7 were grown in Iscove's+20% FBS, OCI-Ly19 was grown in alphaMEM+20% FBS, and all other cell lines were grown in RPMI+10% FBS. To each well, 11 μl of 10× compound was added in a final concentration of 0.1% DMSO and cells were incubated at 37° C. in 5% CO2 for 72 hours. Cell viability was assessed with Cell Titer Glo (Promega, Madison, Wis.) following the manufacturer's protocol on an Envision plate reader (Perkin Elmer, Waltham, Mass.). EC50 values were determined using a four parameter variable slope model with GraphPad Prism 6.0 software. All EC50 values represent mean values of from duplicate dose response curves.

[2] = test system: SU-DHL-4; assay: Cell Titer Glo viability assay, SU-DHL-4; format: cell-based; details: Homo sapiens; SU-DHL-4, DLBCL; single agent; 72 hours; read-out: Inhibition of Viability, EC50
Protocol: as §1

[3] = test system: Karpas 422; assay: Cell Titer Glo viability assay, Karpas 422; format: cell-based; details: Homo sapiens; Karpas 422, DLBCL; single agent; 72 hours; read-out: Inhibition of Viability, EC50
Protocol: as §1

[4] = test system: OCI-LY4; assay: Cell Titer Glo viability assay, OCI-LY4; format: cell-based; details: OCI-LY4, DLBCL; single agent; 72 hours; read-out: Inhibition of Viability, EC50
Protocol: as §1

[5] = test system: Mino; assay: Cell Titer Glo viability assay, Mino; format: cell-based; details: Homo sapiens; Mino, MCL; single agent; 72 hours; read-out: Inhibition of Viability, EC50
Protocol: as §1

[6] = test system: KMS-11; assay: Cell Titer Glo viability assay, KMS-11; format: cell-based; details: Homo sapiens; KMS-11, MM; single agent; 72 hours; read-out: Inhibition of Viability, EC50
Protocol: as §1

[7] = test system: OPM-2; assay: Cell Titer Glo viability assay, OPM-2; format: cell-based; details: Homo sapiens; OPM-2, MM; single agent; 72 hours; read-out: Inhibition of Viability, EC50
Protocol: as §1

[8] = test system: WSU-NHL; assay: Cell Titer Glo viability assay, WSU-NHL; format: cell-based; details: Homo sapiens, FL, single agent, 72 hours, read-out: Inhibition of Viability, EC50
Protocol: as §1

[9] = test system: SU-DHL-10; assay: SU-DHL-10 mouse xenograft model of diffuse large B cell lymphoma, tumor growth; format: in vivo; details: for complete or partial regressions (in words): single agents; for partial tumor regressions: treatment alone
Protocol: Entospletinib was evaluated for efficacy in vivo as a single agent and in combination with vincristine in a subcutaneous cell line tumor xenograft model in male SCID beige mice using the human diffuse large B-cell lymphoma cell line, SU-DHL-10 in a 2×2 dose level matrix of Entospletinib and vincristine.
Formulation—Entospletinib was formulated in a complete vehicle of 0.5% HPMC-0.2% Tween 80 (pH 3.5 50 mM acetate buffer, and the lower dose was prepared by direct dilution). The high dose formulation was mixed using a stir bar (and Polytroned briefly as needed to break up clumps of compound) to form a yellow solution (pH=1.8), which became an opaque suspension within 30 minutes. The dosing suspension was prepared fresh daily and stored at 4° C. protected from light between treatments.
The formulation for the highest dose group of vincristine was prepared by diluting the stock solution with 0.9% sterile saline, and the lower dose was prepared by direct dilution of that stock with saline. […] The dosing formulations were prepared just prior to each treatment.
Male Harlan SCID beige mice (C.B-17/IcrHsd-Prkdc^scidLyst^bg-J) were used in this study. They were 6-7 weeks old on Day 1 of the experiment and were fed irradiated Harlan 2918.15 Rodent Diet and water ad libitum. Animals were housed in static cages with Bed-O'Cobs™ bedding (The Andersons Lab Bedding Products) inside Biobubble® Clean Rooms that provide H.E.P.A filtered air into the bubble environment at 100 complete air changes per hour. All treatments, body weight determinations, and tumor measurements were carried out in the bubble environment. The environment was controlled to a temperature range of 70°±2° F. and a humidity range of 30-70%.
SU-DHL-10 cells were obtained from Leibniz Institute DSMZ-German Collection of Microorganisms and Cell Cultures (DSMZ). They were grown in RPMI 1640 medium which was modified with 1% 100 mM Na pyruvate, 1% 1M HEPES buffer, 1% of a 45% glucose solution and supplemented with 10% non-heat-inactivated Fetal Bovine Serum (FBS) and 1% 100× Penicillin/Streptomycin/L-Glutamine (PSG). The growth environment was maintained in an incubator with a 5% CO2 atmosphere at 37° C. The cells were centrifuged at 200 rcf for 8 minutes at 8° C., the supernatant aspirated, and the pellet re-suspended in cold Dulbecco's Phosphate Buffered Saline (DPBS) by pipetting. An aliquot of the homogeneous cell suspension was diluted with a trypan blue solution and counted using a Luna automated cell counter. The pre-implantation cell viability was 91%. The cell suspension was centrifuged at 200 rcf for 8 minutes at 8° C. The supernatant was aspirated and the cell pellet was re-suspended in cold 50% serum-free medium:50% Matrigel® Matrix (Corning) to generate a final concentration of 2.5E+07 cells/ml. The cell suspension was maintained on wet ice during implantation. Following implantation, an aliquot of the remaining cells was diluted with a trypan blue solution and counted to determine the post-implantation cell viability (91%). Test animals were implanted subcutaneously, high in the axilla (just under the fore limb) on Day 0 with 5.0×10^6 cells in 0.2 ml of 50% serum-free medium: 50% Matrigel® Matrix using a 27-gauge needle and syringe.
All mice were sorted into study groups based on tumor burden (estimated from caliper measurements). Efficacy was evaluated by tumor volume/weight monitored during and after treatment. Tumor burden (mg) was measured three times weekly by using caliper measurements and converting to tumor mass by the formula for the volume of a prolate ellipsoid assuming unit density as: Tumor burden (mg)=(L×W^2)/2 • where L and W are the respective orthogonal tumor length and width measurements (mm). The criteria used for a successful distribution in this study was a mean tumor burden for all groups within 10% of the overall mean tumor burden for the study population Treatment began on Day 16 at an overall mean tumor burden of 197 mm^3. […]

Compound: c1cn2cc(-c3ccc4cn[nH]c4c3)nc(Nc3ccc(N4CCOCC4)cc3)c2n1 [Compound of Formula I, 6-(1H-indazol-6-yl)-N-(4-morpholinophenyl)imidazo[1,2-a]pyrazin-8-amine]
- EC50 [1]: > 3 µM
- EC50 [2]: > 3 µM
- EC50 [3]: > 3 µM
- EC50 [4]: > 3 µM
- EC50 [5]: > 3 µM
- EC50 [6]: > 3 µM
- EC50 [7]: > 3 µM
- EC50 [8]: > 3 µM
- Day 31 % Tumor Growth Inhibition ([9]; ENTO 25 mg/kg BID + Vehicle for VCR Q7Dx3 (group 3)): 20%
- Day 31 % Tumor Growth Inhibition ([9]; ENTO 75/50 mg/kg BID + Vehicle for VCR Q7Dx3 (group 2)): 39%
- inhibition of tumor growth (in words) ([9]; Entospletinib dosed alone at 25 or 75/50 mg/kg): inhibited tumor growth but to a lesser degree than that seen with vincristine
- complete or partial regressions (in words) [9]: no complete or partial regressions
- partial tumor regressions [9]: 0%

Compound: CC[C@]1(O)C[C@H]2CN(CCc3c([nH]c4ccccc34)[C@@](C(=O)OC)(c3cc4c(cc3OC)N(C=O)[C@H]3[C@@](O)(C(=O)OC)[C@H](OC(C)=O)[C@]5(CC)C=CCN6CC[C@]43[C@@H]65)C2)C1 [Vincristine, vincristine]
- EC50 [1]: 0.065 µM
- EC50 [2]: 0.075 µM
- EC50 [3]: 0.062 µM
- EC50 [4]: < 0.001 µM
- EC50 [5]: 0.042 µM
- EC50 [6]: 0.103 µM
- EC50 [7]: 0.097 µM
- EC50 [8]: 0.039 µM
- Day 31 % Tumor Growth Inhibition ([9]; Vehicle for ENTO + VCR 0.15 mg/kg Q7Dx3 (group 5)): 42%
- Day 31 % Tumor Growth Inhibition ([9]; Vehicle for ENTO + VCR 0.5 mg/kg Q7Dx3 (group 4)): 85%
- complete or partial regressions (in words) [9]: no complete or partial regressions
- partial tumor regressions [9]: 0%
- inhibition of tumor growth (in words) ([9]; vincristine at both 0.15 and 0.5 mg/kg): significant inhibition of tumor growth
